Results taken from ChEMBL document CHEMBL1127646, “Mechanism-based isocoumarin inhibitors for blood coagulation serine proteases. Effect of the 7-substituent in 7-amino-4-chloro-3-(isothioureidoalkoxy)isocoumarins on inhibitory and anticoagulant potency” (J Med Chem, 1994).

System: not listed separately
Test: Anticoagulant activity was determined in Ortho-activated thrombofax (APTT) assay at a dose 32 uM in human dead plasma
Format: functional
Details: not given

| Structure (SMILES) | APTT |
| --- | --- |
| N=C(N)SCCOc1oc(=O)c2cc(NC(=O)CCc3ccccc3)ccc2c1Cl | 140 s |

System: not listed separately
Test: Anticoagulant activity was determined in Ortho-activated thrombofax (APTT) assay at a dose 9.4 uM in human dead plasma
Format: functional
Details: not given

| Structure (SMILES) | APTT |
| --- | --- |
| N=C(N)SCCOc1oc(=O)c2cc(NC(=O)Nc3ccccc3)ccc2c1Cl | 47.7 s |
| C[C@H](NC(=O)Nc1ccc2c(Cl)c(OCCSC(=N)N)oc(=O)c2c1)c1ccccc1 | 57.6 s |
| N=C(N)SCCOc1oc(=O)c2cc(NC(=O)CCc3ccccc3)ccc2c1Cl | 52.4 s |
| N=C(N)SCCOc1oc(=O)c2cc(NC(=O)NCc3ccccc3)ccc2c1Cl | 60.1 s |

Biological target: Tissue factor (Homo sapiens) (UniProt P13726)
Sequence (P13726 whole entry): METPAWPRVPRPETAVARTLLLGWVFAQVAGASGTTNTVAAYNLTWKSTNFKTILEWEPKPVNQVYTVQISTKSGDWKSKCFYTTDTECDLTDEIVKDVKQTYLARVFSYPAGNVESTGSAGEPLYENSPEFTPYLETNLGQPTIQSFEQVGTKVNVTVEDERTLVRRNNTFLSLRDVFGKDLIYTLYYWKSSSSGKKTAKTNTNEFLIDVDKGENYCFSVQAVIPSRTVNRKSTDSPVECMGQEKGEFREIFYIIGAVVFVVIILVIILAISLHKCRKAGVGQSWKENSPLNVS
Test: Anticoagulant activity in PT assay at a dose of 31 uM
Details: not given

| Structure (SMILES) | PT |
| --- | --- |
| N=C(N)SCCOc1oc(=O)c2cc(NC(=O)CCc3ccccc3)ccc2c1Cl | 24.4 s |
| CC(=O)CCC(=O)Nc1ccc2c(Cl)c(OCCSC(=N)N)oc(=O)c2c1 | 42.5 s |
| N=C(N)SCCOc1oc(=O)c2cc(NC(=O)NC(c3ccccc3)c3ccccc3)ccc2c1Cl | 18.4 s |

System: not listed separately
Test: Anticoagulant activity was determined in Ortho-activated thrombofax (APTT) assay at a dose 31 uM in human dead plasma
Format: functional
Details: not given

| Structure (SMILES) | APTT |
| --- | --- |
| N=C(N)SCCOc1oc(=O)c2cc(NC(=O)Nc3ccccc3)ccc2c1Cl | 87.3 s |
| C[C@H](NC(=O)Nc1ccc2c(Cl)c(OCCSC(=N)N)oc(=O)c2c1)c1ccccc1 | 111.2 s |
| N=C(N)SCCOc1oc(=O)c2cc(NC(=O)CCc3ccccc3)ccc2c1Cl | 76.2 s |
| CC(=O)CCC(=O)Nc1ccc2c(Cl)c(OCCSC(=N)N)oc(=O)c2c1 | >140 s |
| N=C(N)SCCOc1oc(=O)c2cc(NC(=O)NCc3ccccc3)ccc2c1Cl | 115.4 s |
| N=C(N)SCCOc1oc(=O)c2cc(NC(=O)NC(c3ccccc3)c3ccccc3)ccc2c1Cl | 121 s |

Biological target: T1, Coagulation factor III (Sus scrofa) (UniProt Q6RCS8)
T1 sequence (whole entry): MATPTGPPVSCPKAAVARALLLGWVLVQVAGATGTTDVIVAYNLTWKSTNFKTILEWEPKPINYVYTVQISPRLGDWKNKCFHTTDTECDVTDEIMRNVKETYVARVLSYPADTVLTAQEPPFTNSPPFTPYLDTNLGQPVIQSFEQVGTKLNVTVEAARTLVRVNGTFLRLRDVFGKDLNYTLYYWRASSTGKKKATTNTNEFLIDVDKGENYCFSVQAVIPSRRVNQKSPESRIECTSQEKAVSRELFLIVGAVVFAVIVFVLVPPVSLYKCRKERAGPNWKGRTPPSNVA
Test: Anticoagulant activity in PT assay at a dose 16 uM
Details: not given

| Structure (SMILES) | PT |
| --- | --- |
| N=C(N)SCCOc1oc(=O)c2cc(NC(=O)Nc3ccccc3)ccc2c1Cl | 28.5 s |

Biological target: T2, Coagulation factor VII (Homo sapiens) (UniProt P08709)
T2 sequence (whole entry): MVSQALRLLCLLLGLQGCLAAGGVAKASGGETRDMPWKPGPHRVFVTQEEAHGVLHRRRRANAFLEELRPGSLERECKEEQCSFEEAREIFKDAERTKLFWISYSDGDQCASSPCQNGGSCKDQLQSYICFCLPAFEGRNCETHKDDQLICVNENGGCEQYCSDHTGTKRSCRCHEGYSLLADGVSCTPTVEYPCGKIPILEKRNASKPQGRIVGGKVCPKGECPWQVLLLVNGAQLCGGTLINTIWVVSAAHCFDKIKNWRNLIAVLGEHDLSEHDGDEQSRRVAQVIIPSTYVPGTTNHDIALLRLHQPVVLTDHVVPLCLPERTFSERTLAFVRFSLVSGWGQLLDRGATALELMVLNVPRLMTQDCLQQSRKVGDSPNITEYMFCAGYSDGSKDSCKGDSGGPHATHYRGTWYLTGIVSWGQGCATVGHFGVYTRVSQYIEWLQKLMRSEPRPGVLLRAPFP
Test: Inhibition of human coagulation factor VII at 7.2-44 uM
Details: not given

| Structure (SMILES) | K obs / 1 |
| --- | --- |
| N=C(N)SCCOc1oc(=O)c2cc(NC(=O)Nc3ccccc3)ccc2c1Cl | 3140 M⁻¹ s⁻¹ |
| O=c1oc(Cl)c(Cl)c2ccccc12 | 31 M⁻¹ s⁻¹ |
| C[C@H](NC(=O)Nc1ccc2c(Cl)c(OCCSC(=N)N)oc(=O)c2c1)c1ccccc1 | 1830 M⁻¹ s⁻¹ |
| N=C(N)SCCOc1oc(=O)c2cc(NC(=O)NCc3ccccc3)ccc2c1Cl | 1810 M⁻¹ s⁻¹ |

System: not listed separately
Test: Anticoagulant activity was determined in Ortho-activated thrombofax (APTT) assay at a dose 32 uM in pig plasma
Format: functional, Sus scrofa
Details: not given

| Structure (SMILES) | APTT |
| --- | --- |
| C[C@H](NC(=O)Nc1ccc2c(Cl)c(OCCSC(=N)N)oc(=O)c2c1)c1ccccc1 | >120 s |
| N=C(N)SCCOc1oc(=O)c2cc(NC(=O)NCc3ccccc3)ccc2c1Cl | >120 s |

Biological target: Prothrombin (Bos taurus) (UniProt P00735)
Test: Inhibition of bovine thrombin (inhibitor concentration 1.2-54 uM)
Details: not given

| Structure (SMILES) | K obs / 1 |
| --- | --- |
| N=C(N)SCCOc1oc(=O)c2cc(NC(=O)Nc3ccccc3)ccc2c1Cl | 25000 M⁻¹ s⁻¹ |
| O=c1oc(Cl)c(Cl)c2ccccc12 | 25 M⁻¹ s⁻¹ |
| C[C@H](NC(=O)Nc1ccc2c(Cl)c(OCCSC(=N)N)oc(=O)c2c1)c1ccccc1 | 41300 M⁻¹ s⁻¹ |
| N=C(N)SCCOc1oc(=O)c2cc(NC(=O)NCc3ccccc3)ccc2c1Cl | 16800 M⁻¹ s⁻¹ |

System: not listed separately
Test: Hydrolysis half life (t1/2)
Format: ADME
Details: not given

| Structure (SMILES) | half-life |
| --- | --- |
| N=C(N)SCCOc1oc(=O)c2cc(NC(=O)Nc3ccccc3)ccc2c1Cl | 108 min |
| C[C@H](NC(=O)Nc1ccc2c(Cl)c(OCCSC(=N)N)oc(=O)c2c1)c1ccccc1 | 56 min |
| N=C(N)SCCOc1oc(=O)c2cc(NC(=O)CCc3ccccc3)ccc2c1Cl | 39 min |
| CC(=O)CCC(=O)Nc1ccc2c(Cl)c(OCCSC(=N)N)oc(=O)c2c1 | 28 min |
| N=C(N)SCCOc1oc(=O)c2cc(NC(=O)NC(c3ccccc3)c3ccccc3)ccc2c1Cl | 168 min |

Biological target: T1, Coagulation factor III (Sus scrofa)
Test: Anticoagulant activity in PT assay at a dose 32 uM
Details: not given

| Structure (SMILES) | PT |
| --- | --- |
| N=C(N)SCCOc1oc(=O)c2cc(NC(=O)Nc3ccccc3)ccc2c1Cl | 58.3 s |
| C[C@H](NC(=O)Nc1ccc2c(Cl)c(OCCSC(=N)N)oc(=O)c2c1)c1ccccc1 | 30 s |
| N=C(N)SCCOc1oc(=O)c2cc(NC(=O)NCc3ccccc3)ccc2c1Cl | 31.1 s |

Biological target: Coagulation factor X (Homo sapiens) (UniProt P00742)
Sequence (P00742 41-179 limits assumed): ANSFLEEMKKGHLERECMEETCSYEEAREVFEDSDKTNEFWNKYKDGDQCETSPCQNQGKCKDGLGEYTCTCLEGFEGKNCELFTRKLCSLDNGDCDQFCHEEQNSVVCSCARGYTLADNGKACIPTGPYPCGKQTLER
Sequence (P00742 235-488 limits assumed): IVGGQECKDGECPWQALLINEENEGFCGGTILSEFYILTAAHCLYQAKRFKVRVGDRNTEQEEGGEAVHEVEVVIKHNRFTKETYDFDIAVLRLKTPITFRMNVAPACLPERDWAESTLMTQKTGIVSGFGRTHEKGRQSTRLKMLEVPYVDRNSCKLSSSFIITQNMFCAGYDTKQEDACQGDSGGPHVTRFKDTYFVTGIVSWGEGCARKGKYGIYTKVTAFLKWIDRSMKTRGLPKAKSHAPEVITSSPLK
Test: Inhibition of human factor Xa (inhibitor concentration were 3.6-44 uM)
Details: not given

| Structure (SMILES) | K obs / 1 |
| --- | --- |
| N=C(N)SCCOc1oc(=O)c2cc(NC(=O)Nc3ccccc3)ccc2c1Cl | 4740 M⁻¹ s⁻¹ |
| N=C(N)SCCOc1oc(=O)c2cc(NC(=O)NCc3ccccc3)ccc2c1Cl | 2340 M⁻¹ s⁻¹ |

Biological target: Coagulation factor IX (Homo sapiens) (UniProt P00740)
Test: Inhibition of porcine factor IXa at 8.3-82 uM
Details: Sus scrofa, target entry is the homologue from another species

| Structure (SMILES) | K obs / 1 |
| --- | --- |
| N=C(N)SCCOc1oc(=O)c2cc(NC(=O)Nc3ccccc3)ccc2c1Cl | 1790 M⁻¹ s⁻¹ |
| O=c1oc(Cl)c(Cl)c2ccccc12 | 10 M⁻¹ s⁻¹ |
| C[C@H](NC(=O)Nc1ccc2c(Cl)c(OCCSC(=N)N)oc(=O)c2c1)c1ccccc1 | 3980 M⁻¹ s⁻¹ |
| N=C(N)SCCOc1oc(=O)c2cc(NC(=O)NCc3ccccc3)ccc2c1Cl | 2320 M⁻¹ s⁻¹ |

Biological target: T3, Coagulation factor XII (Homo sapiens) (UniProt P00748)
T3 sequence (whole entry): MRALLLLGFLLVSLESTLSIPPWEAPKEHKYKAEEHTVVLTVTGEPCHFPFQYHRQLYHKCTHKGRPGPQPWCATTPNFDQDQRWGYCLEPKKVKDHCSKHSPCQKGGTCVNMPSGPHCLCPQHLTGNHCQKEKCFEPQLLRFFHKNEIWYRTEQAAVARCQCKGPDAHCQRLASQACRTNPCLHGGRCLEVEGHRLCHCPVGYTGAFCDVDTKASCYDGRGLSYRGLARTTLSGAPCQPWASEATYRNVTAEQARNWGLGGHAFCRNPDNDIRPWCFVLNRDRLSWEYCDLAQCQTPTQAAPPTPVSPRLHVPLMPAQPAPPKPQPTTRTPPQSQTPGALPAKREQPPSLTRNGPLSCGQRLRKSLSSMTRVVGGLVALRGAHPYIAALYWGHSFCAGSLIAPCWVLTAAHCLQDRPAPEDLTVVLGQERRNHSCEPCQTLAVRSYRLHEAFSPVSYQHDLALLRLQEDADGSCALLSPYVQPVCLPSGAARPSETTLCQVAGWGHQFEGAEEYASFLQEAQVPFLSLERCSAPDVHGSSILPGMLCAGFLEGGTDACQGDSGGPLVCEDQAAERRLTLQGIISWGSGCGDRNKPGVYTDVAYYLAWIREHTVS
Test: Inhibition of human coagulation factor XII (inhibitor concentration were 3.6-4.9 uM)
Details: not given

| Structure (SMILES) | K obs / 1 |
| --- | --- |
| N=C(N)SCCOc1oc(=O)c2cc(NC(=O)Nc3ccccc3)ccc2c1Cl | 50000 M⁻¹ s⁻¹ |
| O=c1oc(Cl)c(Cl)c2ccccc12 | 64 M⁻¹ s⁻¹ |
| N=C(N)SCCOc1oc(=O)c2cc(NC(=O)NCc3ccccc3)ccc2c1Cl | 45000 M⁻¹ s⁻¹ |

Biological target: Prothrombin (Homo sapiens) (UniProt P00734)
Test: Inhibition of human thrombin (inhibitor concentration 1.2-54 uM)
Details: not given

| Structure (SMILES) | K obs / 1 |
| --- | --- |
| N=C(N)SCCOc1oc(=O)c2cc(NC(=O)Nc3ccccc3)ccc2c1Cl | 22400 M⁻¹ s⁻¹ |
| O=c1oc(Cl)c(Cl)c2ccccc12 | 10 M⁻¹ s⁻¹ |
| C[C@H](NC(=O)Nc1ccc2c(Cl)c(OCCSC(=N)N)oc(=O)c2c1)c1ccccc1 | 21000 M⁻¹ s⁻¹ |
| N=C(N)SCCOc1oc(=O)c2cc(NC(=O)CCc3ccccc3)ccc2c1Cl | 2150 M⁻¹ s⁻¹ |
| CC(=O)CCC(=O)Nc1ccc2c(Cl)c(OCCSC(=N)N)oc(=O)c2c1 | 1770 M⁻¹ s⁻¹ |
| N=C(N)SCCOc1oc(=O)c2cc(NC(=O)NCc3ccccc3)ccc2c1Cl | 11700 M⁻¹ s⁻¹ |
| N=C(N)SCCOc1oc(=O)c2cc(NC(=O)NC(c3ccccc3)c3ccccc3)ccc2c1Cl | 7050 M⁻¹ s⁻¹ |

Biological target: Coagulation factor XI (Homo sapiens) (UniProt P03951)
Sequence (P03951 19-387 limits assumed): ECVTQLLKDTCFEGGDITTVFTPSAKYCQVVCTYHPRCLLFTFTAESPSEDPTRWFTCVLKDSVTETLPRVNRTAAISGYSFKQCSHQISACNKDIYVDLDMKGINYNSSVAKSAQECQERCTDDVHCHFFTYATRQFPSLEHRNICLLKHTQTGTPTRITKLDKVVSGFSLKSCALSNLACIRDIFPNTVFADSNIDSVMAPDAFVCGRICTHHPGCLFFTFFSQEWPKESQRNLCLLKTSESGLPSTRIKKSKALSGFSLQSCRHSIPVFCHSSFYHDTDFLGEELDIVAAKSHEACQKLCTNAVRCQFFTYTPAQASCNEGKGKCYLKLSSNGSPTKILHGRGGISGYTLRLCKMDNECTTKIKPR
Sequence (P03951 388-625 limits assumed): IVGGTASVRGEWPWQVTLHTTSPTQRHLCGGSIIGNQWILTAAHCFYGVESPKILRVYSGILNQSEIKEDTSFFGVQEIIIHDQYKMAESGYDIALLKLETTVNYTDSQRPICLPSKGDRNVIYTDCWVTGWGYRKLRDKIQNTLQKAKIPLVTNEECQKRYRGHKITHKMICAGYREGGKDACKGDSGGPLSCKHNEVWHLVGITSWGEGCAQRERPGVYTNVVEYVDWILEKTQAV
Test: Compound was evaluated for inhibition of enzyme human coagulation factor XI (inhibitor concentration were 0.7-0.8 uM)
Details: not given

| Structure (SMILES) | K obs / 1 |
| --- | --- |
| N=C(N)SCCOc1oc(=O)c2cc(NC(=O)Nc3ccccc3)ccc2c1Cl | 104000 M⁻¹ s⁻¹ |
| N=C(N)SCCOc1oc(=O)c2cc(NC(=O)NCc3ccccc3)ccc2c1Cl | 105000 M⁻¹ s⁻¹ |

System: not listed separately
Test: Anticoagulant activity was determined in Ortho-activated thrombofax (APTT) assay at a dose 16 uM in pig plasma
Format: functional, Sus scrofa
Details: not given

| Structure (SMILES) | APTT |
| --- | --- |
| N=C(N)SCCOc1oc(=O)c2cc(NC(=O)Nc3ccccc3)ccc2c1Cl | >120 s |
